The target in one test is T1, Cathepsin B (Bos taurus, UniProt P07688).
T1 construct: Cathepsin B (0.002 unit, bovine spleen); from tissue; host or cells: bovine spleen
As to the kind of experiment: Cathepsin B assay (Cbz-Arg-Arg-MNA substrate). Format: biochemical, bovine. As to conditions: pH 5.5, 60 minutes, room temperature. How it is done: (§1) Selectivity of α-substituted Hydrazides: Calpain I and II were assayed as described in Example 1. One to 2 ng papain (papaya latex, Sigma, P3125), 1.25 μg trypsin (bovine pancreas, Sigma, T8003), 5 μg thermolysin (Bacillus thermoproteolyticus, Sigma, P1512) were assayed using 0.5 mg/mL casein as substrate in the microplate format (250 μL reaction volume), essentially a described by Buroker-Kilgore, M. and Wang K K W, Anal Biochem 1993;208: 387-392. Cathepsin B (0.002 unit, bovine spleen) was assayed with 50 mM MES (pH 5.5), 100 μM carbobenzoxy-Arg-Arg-4-methoxy-beta-naphthlamide (Cbz-Arg-Arg-MNA), inhibitor, and 2 mM DTT in 200 μL for 60 minutes at room temperature. Fifty-microliter aliquots were transferred to a fluorescence-compatible plate and then read with a Perkin-Elmer fluorometer LS-50B (excitation 340 nm and emission 425 nm). Calcineurin (bovine brain, Sigma) (5 μg, 0.8 unit) was assayed with 10 mM p-nitrophenyl phosphate in 1 mM DTT, 1 mM CaCl2, 1 mM MnCl2, […] calmodulin (CaM, if added), and 50 mM Tris-HCl (pH 7.4) at 25° C. for 60 minutes or more. Production of p-nitrophenol was monitored at 405 nm. Inhibition of these proteases are presented as IC50.

A further test deals with T2, Trypsin (Bos taurus, UniProt P00760).
T2 construct: purchased Sigma T8003; host or cells: bovine pancreas
T2 sequence (P00760 24-246): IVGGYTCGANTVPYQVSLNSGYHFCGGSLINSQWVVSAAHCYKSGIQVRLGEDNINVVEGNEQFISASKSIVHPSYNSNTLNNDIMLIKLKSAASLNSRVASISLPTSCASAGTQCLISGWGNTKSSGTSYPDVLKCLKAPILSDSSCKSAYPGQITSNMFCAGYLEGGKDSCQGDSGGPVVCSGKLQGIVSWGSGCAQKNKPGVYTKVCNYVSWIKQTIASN
The experiment in a line: Trypsin assay, casein substrate. The conditions noted are these: 0.5 mg/mL casein. The format is biochemical, bovine. How it is done: as §1

In test [1] the test system is Fetal Rat Cerebrocortical Cultures. As to the kind of experiment: Oxygen/glucose deprivation induced LDH release from fetal rat cerebrocortical cultures. The format is cell-based. (In general: LDH in the medium is a marker of cell lysis.)
The target of another test is T3, Human Calpain II (Homo sapiens, UniProt P17655).
T3 sequence (P17655 1-700): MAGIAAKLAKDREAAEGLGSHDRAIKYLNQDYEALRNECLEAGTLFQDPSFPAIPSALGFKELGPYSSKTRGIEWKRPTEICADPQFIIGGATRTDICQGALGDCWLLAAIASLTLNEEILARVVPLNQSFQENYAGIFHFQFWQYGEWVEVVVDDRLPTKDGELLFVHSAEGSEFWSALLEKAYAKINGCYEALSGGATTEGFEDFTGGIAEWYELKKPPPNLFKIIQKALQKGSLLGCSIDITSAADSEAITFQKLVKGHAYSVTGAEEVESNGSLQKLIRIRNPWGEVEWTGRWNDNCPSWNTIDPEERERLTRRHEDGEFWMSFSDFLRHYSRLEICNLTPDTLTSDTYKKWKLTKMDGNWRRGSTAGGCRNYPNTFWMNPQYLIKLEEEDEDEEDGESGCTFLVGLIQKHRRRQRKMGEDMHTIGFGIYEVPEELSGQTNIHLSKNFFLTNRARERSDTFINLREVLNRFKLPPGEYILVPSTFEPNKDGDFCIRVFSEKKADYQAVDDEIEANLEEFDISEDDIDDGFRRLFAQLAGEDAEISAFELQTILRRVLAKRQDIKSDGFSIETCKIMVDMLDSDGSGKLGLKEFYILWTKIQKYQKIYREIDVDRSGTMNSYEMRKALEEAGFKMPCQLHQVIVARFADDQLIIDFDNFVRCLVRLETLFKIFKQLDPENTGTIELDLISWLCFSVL
T3 sequence (P04632 1-268 partner): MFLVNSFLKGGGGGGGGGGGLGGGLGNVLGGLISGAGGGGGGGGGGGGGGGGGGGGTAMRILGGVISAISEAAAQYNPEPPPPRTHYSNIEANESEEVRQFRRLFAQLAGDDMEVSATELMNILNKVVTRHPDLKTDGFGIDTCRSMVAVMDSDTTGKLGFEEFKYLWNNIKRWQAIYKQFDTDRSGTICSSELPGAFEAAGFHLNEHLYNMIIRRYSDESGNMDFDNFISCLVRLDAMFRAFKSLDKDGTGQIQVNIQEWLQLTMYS
The experiment in a line: Calpain II activity, casein substrate, Coomassie microplate assay. Format: biochemical. The conditions noted are these: casein 0.5 mg/mL (Table I). As to the method:
Assay of calpain activity: Calpain I was purified from human erythrocytes as described by Wang K K W, Roufogalis B D, and Villalobo A, Arch Biochem Biophys 1988;267: 317-327. Calpain activity was assayed in a 96-well microplate format (Buroker-Kilgore M and Wang K K W, Anal Bio Chem 1993;208: 387-392). In 250 μL of reaction mixture, substrate casein (0.5 mg/mL) was incubated with 0.01 unit (80-120 ng) calpain I, 20 mM dithiothreitol (DTT), 50 mM Tris-HCl (pH 7.4 at 25° C.) and 4 mM CaCl2 at 25° C. for 60 minutes. Two 100-μL aliquots were taken for Coomassie blue G250 binding analysis to quantify the remaining casein.
Compound concentrations that cause 50% inhibition (IC50) are as shown (Table I). The second rate of inactivation of calpain I for 2 compounds are also shown.
as §1

The target of another test is T4, Thermolysin (Bacillus thermoproteolyticus, UniProt P00800).
T4 construct: purchased Sigma P1512; host or cells: Bacillus thermoproteolyticus
T4 sequence (P00800 233-548): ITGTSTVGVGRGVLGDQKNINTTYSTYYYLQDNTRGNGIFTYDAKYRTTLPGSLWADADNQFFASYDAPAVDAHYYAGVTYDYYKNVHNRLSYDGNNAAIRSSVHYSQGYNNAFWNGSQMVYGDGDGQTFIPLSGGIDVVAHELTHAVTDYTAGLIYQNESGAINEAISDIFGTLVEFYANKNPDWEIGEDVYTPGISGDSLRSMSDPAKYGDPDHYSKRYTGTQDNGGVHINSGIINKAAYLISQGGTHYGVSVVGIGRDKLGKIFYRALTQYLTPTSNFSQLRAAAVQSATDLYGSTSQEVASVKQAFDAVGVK
The experiment in a line: Thermolysin assay, casein substrate. Format: biochemical. As to the method:
as §1

For another test, the target named is T5, Papain (Carica papaya, UniProt P00784).
T5 construct: purchased Sigma P3125; host or cells: papaya latex
T5 sequence (P00784 134-345): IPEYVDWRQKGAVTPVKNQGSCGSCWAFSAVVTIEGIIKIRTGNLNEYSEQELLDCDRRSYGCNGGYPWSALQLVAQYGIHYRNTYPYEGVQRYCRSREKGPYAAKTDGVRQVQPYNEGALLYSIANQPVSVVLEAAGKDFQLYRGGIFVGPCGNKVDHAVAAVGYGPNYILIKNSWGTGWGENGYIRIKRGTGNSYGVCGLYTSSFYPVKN
The experiment in a line: Papain assay, casein substrate. The format is biochemical. As to conditions: 0.5 mg/mL casein. As to the method:
as §1

The source of these data is US5679680A, “α-substituted hydrazides having calpain inhibitory activity” (Warner-Lambert Company, priority 1995, dated 1997).

SMILES strings stand for the structures.

By IC50 is commonly meant the concentration that inhibits the measured activity by half. As to `O=C(CCl)NN=c1[nH]c2ccccc2n(-c2ccccc2)c1=O` [Example 5, 2-Chloro-acetic acid (3-oxo-4-phenyl-3,4-dihydro-1H-quinoxalin-2-ylidene)-hydrazide], the IC50 is more than 200 µM against Cathepsin B; more than 200 µM at Trypsin; 0.59 µM at Human Calpain II; more than 500 µM at Thermolysin; 5.6 µM at Papain. In test [1] (Hypoxia/Hypoglycemia, mean ± SEM (6), p < 0.001 vs Hypoxia/Hypoglycemia alone (143.81 ± 9.72), Normoxia 46.13 ± 6.08), this molecule had an LDH release of 57.27 ± 8.11 Unit/mL. The “Resistance of neurons to oxygen/glucose deprivation” value in test [1] (LDH release after 24 hours) is “enabled the neurons to resist the oxygen/glucose deprivation for longer”.
